Experimental data from ChEMBL document CHEMBL4190401, “Lung cancer and matrix metalloproteinases inhibitors of polyphenols from Selaginella tamariscina with suppression activity of migration” (Bioorg Med Chem Lett, 2018).
Calls of active or inactive are those of the source. The calls are words filed in the database; no cut-off is given here.

What was measured:
[1] = target: 72 kDa type IV collagenase (Homo sapiens, UniProt P08253); assay: Inhibition of recombinant human MMP2 preincubated for 30 mins followed by McaPro-Leu-Gly-Leu-Dpa-Ala-Arg-NH2 substrate addition measured by fluorescence assay
MGC-803 = assay: Cytotoxicity against human MGC803 cells assessed as reduction in cell viability after 48 hrs by MTT assay; assay type: functional, cell-based; conditions: MGC-803, 48 h
HepG2 = assay: Cytotoxicity against human HepG2 cells assessed as reduction in cell viability after 48 hrs by MTT assay; assay type: functional, cell-based; conditions: HepG2, 48 h
A549 [2] = assay: Cytotoxicity against human A549 cells assessed as reduction in cell viability after 48 hrs by MTT assay; assay type: functional, cell-based; conditions: A549, 48 h
T-24 = assay: Cytotoxicity against human T24 cells assessed as reduction in cell viability after 48 hrs by MTT assay; assay type: functional, cell-based; conditions: T-24, 48 h
Stromelysin-1 = Stromelysin-1 (Homo sapiens, UniProt P08254); assay: Inhibition of recombinant human MMP3 preincubated for 30 mins followed by McaPro-Leu-Gly-Leu-Dpa-Ala-Arg-NH2 substrate addition measured by fluorescence assay
[3] = target: T1, Matrix metalloproteinase-9 (Homo sapiens, UniProt P14780); assay: Inhibition of recombinant human MMP9 preincubated for 30 mins followed by McaPro-Leu-Gly-Leu-Dpa-Ala-Arg-NH2 substrate addition measured by fluorescence assay
A549 [4] = assay: Antimigratory activity against human A549 cells assessed as inhibition of wound healing at 10 to 20 uM after 24 hrs by phase contrast microscopic method; assay type: functional, cell-based
[5] = target: T1, Matrix metalloproteinase-9; assay: Binding affinity to MMP9 (unknown origin) by SPR assay
A549 [6] = assay: Induction of apoptosis in human A549 cells assessed as live cells at 10 uM after 24 hrs by Annexin V-FITC/propidium iodide staining based flow cytometry (reference value: 91.9%); assay type: functional
A549 [7] = assay: Induction of apoptosis in human A549 cells assessed as live cells at 20 uM after 24 hrs by Annexin V-FITC/propidium iodide staining based flow cytometry (reference value: 91.9%); assay type: functional
A549 [8] = assay: Induction of apoptosis in human A549 cells assessed as live cells at 40 uM after 24 hrs by Annexin V-FITC/propidium iodide staining based flow cytometry (reference value: 91.9%); assay type: functional
A549 [9] = assay: Induction of apoptosis in human A549 cells assessed as early apoptotic cells at 10 uM after 24 hrs by Annexin V-FITC/propidium iodide staining based flow cytometry (reference value: 1.2%); assay type: functional
A549 [10] = assay: Induction of apoptosis in human A549 cells assessed as early apoptotic cells at 20 uM after 24 hrs by Annexin V-FITC/propidium iodide staining based flow cytometry (reference value: 1.2%); assay type: functional
A549 [11] = assay: Induction of apoptosis in human A549 cells assessed as early apoptotic cells at 40 uM after 24 hrs by Annexin V-FITC/propidium iodide staining based flow cytometry (reference value: 1.2%); assay type: functional
A549 [12] = assay: Induction of apoptosis in human A549 cells assessed as late apoptotic cells at 10 uM after 24 hrs by Annexin V-FITC/propidium iodide staining based flow cytometry (reference value: 2.8%); assay type: functional
A549 [13] = assay: Induction of apoptosis in human A549 cells assessed as late apoptotic cells at 20 uM after 24 hrs by Annexin V-FITC/propidium iodide staining based flow cytometry (reference value: 2.8%); assay type: functional
A549 [14] = assay: Induction of apoptosis in human A549 cells assessed as late apoptotic cells at 40 uM after 24 hrs by Annexin V-FITC/propidium iodide staining based flow cytometry (reference value: 2.8%); assay type: functional
A549 [15] = assay: Induction of apoptosis in human A549 cells after 24 hrs by Annexin V-FITC/propidium iodide staining based flow cytometry; assay type: functional, cell-based
A549 [16] = assay: Induction of apoptosis in human A549 cells at 10 to 40 uM after 24 hrs by acridine orange/ethidium bromide double staining based fluorescence microscopic method; assay type: functional, cell-based
A549 [17] = assay: Induction of apoptosis in human A549 cells assessed as increase in caspase-3 level after 24 hrs by Western blot method; assay type: functional, cell-based
A549 [18] = assay: Induction of apoptosis in human A549 cells assessed as increase in caspase-9 level at 10 to 40 uM after 24 hrs by Western blot method; assay type: functional, cell-based
A549 [19] = assay: Induction of apoptosis in human A549 cells assessed as increase in Bax level after 24 hrs by Western blot method; assay type: functional, cell-based
A549 [20] = assay: Induction of apoptosis in human A549 cells assessed as decrease in Bcl-2 level at 10 to 40 uM after 24 hrs by Western blot method; assay type: functional, cell-based

T1 sequence (P14780 whole entry): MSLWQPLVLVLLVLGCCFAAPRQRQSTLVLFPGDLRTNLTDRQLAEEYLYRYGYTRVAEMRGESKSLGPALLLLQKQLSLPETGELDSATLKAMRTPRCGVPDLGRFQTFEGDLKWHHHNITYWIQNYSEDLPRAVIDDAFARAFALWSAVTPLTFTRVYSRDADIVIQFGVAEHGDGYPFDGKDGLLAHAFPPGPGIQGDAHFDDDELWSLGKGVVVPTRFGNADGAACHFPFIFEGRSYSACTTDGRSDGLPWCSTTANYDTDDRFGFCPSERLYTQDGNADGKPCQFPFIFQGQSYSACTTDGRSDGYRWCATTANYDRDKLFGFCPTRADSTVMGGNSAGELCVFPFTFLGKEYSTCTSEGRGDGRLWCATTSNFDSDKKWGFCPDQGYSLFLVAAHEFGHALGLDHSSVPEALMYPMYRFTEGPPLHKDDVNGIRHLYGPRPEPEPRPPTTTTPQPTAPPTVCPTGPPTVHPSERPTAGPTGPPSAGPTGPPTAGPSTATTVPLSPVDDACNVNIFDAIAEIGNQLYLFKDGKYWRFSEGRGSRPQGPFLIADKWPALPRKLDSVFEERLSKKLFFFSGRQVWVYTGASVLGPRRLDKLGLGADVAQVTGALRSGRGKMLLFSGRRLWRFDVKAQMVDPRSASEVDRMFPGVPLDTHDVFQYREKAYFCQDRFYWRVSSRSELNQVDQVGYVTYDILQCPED
Stromelysin-1, sequence (P08254 whole entry): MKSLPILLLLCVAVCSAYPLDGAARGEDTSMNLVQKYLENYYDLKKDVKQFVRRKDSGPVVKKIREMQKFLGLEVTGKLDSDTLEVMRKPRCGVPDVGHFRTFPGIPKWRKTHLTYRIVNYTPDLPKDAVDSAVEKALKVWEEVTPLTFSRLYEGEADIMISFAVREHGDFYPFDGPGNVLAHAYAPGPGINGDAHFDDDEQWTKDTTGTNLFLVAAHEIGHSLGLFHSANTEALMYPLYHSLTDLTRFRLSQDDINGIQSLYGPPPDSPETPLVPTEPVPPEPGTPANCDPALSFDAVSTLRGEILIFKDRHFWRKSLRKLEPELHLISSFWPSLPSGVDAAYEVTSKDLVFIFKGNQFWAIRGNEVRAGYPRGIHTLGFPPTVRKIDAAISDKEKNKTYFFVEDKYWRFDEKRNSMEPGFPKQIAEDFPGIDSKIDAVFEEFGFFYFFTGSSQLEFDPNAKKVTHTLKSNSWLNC
72 kDa type IV collagenase, sequence (P08253 whole entry): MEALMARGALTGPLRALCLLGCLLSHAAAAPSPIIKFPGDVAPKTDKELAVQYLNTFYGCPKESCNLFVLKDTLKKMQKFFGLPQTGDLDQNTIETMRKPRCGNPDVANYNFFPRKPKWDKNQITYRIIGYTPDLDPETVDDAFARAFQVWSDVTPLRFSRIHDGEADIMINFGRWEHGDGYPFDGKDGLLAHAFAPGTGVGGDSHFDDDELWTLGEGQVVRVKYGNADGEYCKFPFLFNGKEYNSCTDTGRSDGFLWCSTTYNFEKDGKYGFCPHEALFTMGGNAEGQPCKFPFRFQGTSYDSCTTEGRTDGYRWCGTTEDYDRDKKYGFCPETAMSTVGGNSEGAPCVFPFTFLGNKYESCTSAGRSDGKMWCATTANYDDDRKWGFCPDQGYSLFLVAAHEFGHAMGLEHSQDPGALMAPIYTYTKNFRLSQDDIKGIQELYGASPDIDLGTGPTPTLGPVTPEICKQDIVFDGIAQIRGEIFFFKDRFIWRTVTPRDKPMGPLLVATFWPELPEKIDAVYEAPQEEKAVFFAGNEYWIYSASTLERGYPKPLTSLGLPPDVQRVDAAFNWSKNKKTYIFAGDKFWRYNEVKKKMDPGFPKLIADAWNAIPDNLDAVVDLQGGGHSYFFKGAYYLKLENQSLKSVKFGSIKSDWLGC

| IC50 [1] | IC50 [3] | IC50 (Stromelysin-1; read-out: IC50) | Structure (SMILES) | IC50 (MGC-803) | IC50 (HepG2) | IC50 (A549 [2]) | IC50 (T-24) | also measured |
| --- | --- | --- | --- | --- | --- | --- | --- | --- |
| > 100 µM | 26.1 µM | 37.3 µM | COc1ccc(-c2cc(=O)c3c(O)cc(O)cc3o2)cc1-c1c(O)cc2oc(-c3ccc(O)cc3)cc(=O)c2c1O | 21.8 µM | 26.6 µM | 25.6 µM | 25.8 µM |  |
| 30.3 µM | 2.58 µM | > 100 µM | O=c1cc(-c2ccc(O)c(-c3c(O)cc(O)c4c(=O)cc(-c5ccc(O)cc5)oc34)c2)oc2cc(O)cc(O)c12 [AMENTOFLAVONE] | 9.86 µM | 9.13 µM | 8.36 µM | 10.7 µM | Activity (A549 [4]): Active; Kd [5]: 2180 nM; Activity (A549 [6]): 86%; Activity (A549 [7]): 59%; Activity (A549 [8]): 57.2%; Activity (A549 [9]): 2.5%; Activity (A549 [10]): 9.5%; Activity (A549 [11]): 6.4%; Activity (A549 [12]): 7.9%; Activity (A549 [13]): 28.3%; Activity (A549 [14]): 34.3%; Activity (A549 [15]): Dose-dependent effect; Activity (A549 [16]): Active; Activity (A549 [17]): Dose-dependent effect; Activity (A549 [18]): Active; Activity (A549 [19]): Dose-dependent effect; Activity (A549 [20]): Active |
| 85.3 µM | 41 µM | 82.6 µM | O=C(O)c1c(-c2ccc(O)cc2)ccc(CO)c1C#Cc1ccc(O)cc1 | 32.6 µM | 30.2 µM | 34.1 µM | 37.1 µM |  |
| 54.2 µM | > 100 µM | 66.1 µM | O=C(c1ccc(O)cc1)c1cc(-c2ccc(O)cc2)c(-c2ccc(O)cc2)c(-c2ccc(O)cc2)c1 | > 50 µM | > 50 µM | > 50 µM | > 50 µM |  |
| 53.7 µM | 18.3 µM | 87.8 µM | O=C1OC(c2ccc(O)cc2)(c2ccc(O)cc2)c2c(-c3ccc(O)cc3)ccc(CO)c21 | 13.8 µM | 15.4 µM | 11 µM | 12.7 µM |  |
| > 100 µM | 10.3 µM | > 100 µM | COc1ccc(-c2cc(=O)c3c(O)cc(O)cc3o2)cc1-c1c(O)cc(O)c2c(=O)cc(-c3ccc(O)cc3)oc12 [BILOBETIN] | > 50 µM | > 50 µM | > 50 µM | > 50 µM |  |
| 10.2 µM | 11.8 µM |  | O=c1cc(-c2ccc(O)c(-c3c(O)cc4oc(-c5ccc(O)cc5)cc(=O)c4c3O)c2)oc2cc(O)cc(O)c12 [ROBUSTAFLAVONE] | 15.6 µM | 19.2 µM | 21.4 µM | 21.1 µM | IC50 (Stromelysin-1): Not Active |

The next lines start with the compound.

| Structure (SMILES) | IC50 [1] | IC50 [3] | IC50 (Stromelysin-1; read-out: IC50) | IC50 (MGC-803) | IC50 (HepG2) | IC50 (A549 [2]) | IC50 (T-24) | also measured |
| --- | --- | --- | --- | --- | --- | --- | --- | --- |
| COc1ccc(-c2cc(=O)c3c(O)cc(O)cc3o2)cc1-c1c(O)cc2c(c1O)C(=O)CC(c1ccc(O)cc1)O2 (stereo not given) | > 100 µM | 37.4 µM |  | > 50 µM | > 50 µM | > 50 µM | > 50 µM | IC50 (Stromelysin-1): Not Active |
| CC[C@@]1(O)C(=O)OCc2c1cc1n(c2=O)Cc2cc3cc(O)ccc3nc2-1 [HYDROXYCAMPTOTHECIN] |  |  |  | 6.55 µM | 3.19 µM | 1.75 µM | 11.8 µM |  |
| O=C(/C=C(\c1ccccc1)c1c(-c2ccc(O)cc2)cccc1-c1ccc(O)cc1)c1ccc(O)cc1 | > 100 µM | 24.7 µM | > 100 µM | > 50 µM | > 50 µM | > 50 µM | > 50 µM |  |
| COc1ccc(C2CC(=O)c3c(O)cc(O)cc3O2)cc1-c1c(O)cc(O)c2c(=O)cc(-c3ccc(O)cc3)oc12 (stereo not given) | 45.8 µM | 29.3 µM | 74.3 µM | 36.5 µM | 35 µM | 31.2 µM | 34.9 µM |  |
| O=C1OCc2ccc(-c3ccc(O)cc3)c(C(=O)c3ccc(O)cc3)c21 | 81.2 µM | 36 µM | 40.9 µM | 26.4 µM | 24.8 µM | 21.9 µM | 23.4 µM |  |
| COc1ccc(C2CC(=O)c3c(O)cc(O)cc3O2)cc1-c1c(O)cc2c(c1O)C(=O)CC(c1ccc(O)cc1)O2 (stereo not given) | 35.7 µM | 25.4 µM |  | 26 µM | 28.2 µM | 27.7 µM | 27.4 µM | IC50 (Stromelysin-1): Not Active |
